From patent US7098340B2, “Benzyl sulfonamide derivatives” (Warner Lambert Company LLC, priority 2003, dated 2006)

Each compound was assayed against T1, androgen receptor (Homo sapiens, UniProt P10275) (assay: AR Antagonist Cell Assay (MMTV-luciferase reporter, DHT-stimulated)). Conditions: MDA-MB453-MMTV clone 54-19 cells; antagonism of 100 pM DHT, 17 hr, luciferase readout.
T1 sequence (P10275 1-920 Q868H): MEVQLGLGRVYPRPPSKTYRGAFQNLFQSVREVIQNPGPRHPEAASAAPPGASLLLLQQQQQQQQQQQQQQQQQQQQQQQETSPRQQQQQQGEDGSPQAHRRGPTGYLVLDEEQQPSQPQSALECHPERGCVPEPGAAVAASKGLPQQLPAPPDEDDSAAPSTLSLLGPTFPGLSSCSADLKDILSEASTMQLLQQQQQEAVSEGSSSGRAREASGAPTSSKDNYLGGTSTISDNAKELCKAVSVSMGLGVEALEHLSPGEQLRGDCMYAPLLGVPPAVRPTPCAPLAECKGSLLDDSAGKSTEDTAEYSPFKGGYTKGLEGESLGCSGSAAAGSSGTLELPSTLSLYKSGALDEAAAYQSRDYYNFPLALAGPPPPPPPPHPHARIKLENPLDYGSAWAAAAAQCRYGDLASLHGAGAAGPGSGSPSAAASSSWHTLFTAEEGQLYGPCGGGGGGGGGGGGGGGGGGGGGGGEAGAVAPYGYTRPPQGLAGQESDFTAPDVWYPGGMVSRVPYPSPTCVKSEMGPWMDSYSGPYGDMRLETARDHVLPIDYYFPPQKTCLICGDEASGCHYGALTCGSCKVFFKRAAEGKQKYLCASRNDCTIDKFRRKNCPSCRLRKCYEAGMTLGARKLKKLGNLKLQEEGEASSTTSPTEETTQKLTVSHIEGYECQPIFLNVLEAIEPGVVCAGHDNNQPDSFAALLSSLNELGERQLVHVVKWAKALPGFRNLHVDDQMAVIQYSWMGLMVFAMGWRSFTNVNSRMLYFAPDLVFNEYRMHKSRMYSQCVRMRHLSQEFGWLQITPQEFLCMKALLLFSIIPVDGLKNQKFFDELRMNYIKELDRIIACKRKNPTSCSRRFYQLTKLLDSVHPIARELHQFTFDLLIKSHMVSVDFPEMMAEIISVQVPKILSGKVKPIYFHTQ
Format: cell-based
Description: The compounds ability to antagonize the effects of androgen on the androgen receptor were determined in the protocol described immediately below.
Experimental Procedure for AR Antagonist Cell Assay
Cell line: MDA-MB453-MMTV clone 54–19. This cell line is a stable transfected cell line with MDA-MB453 cell background (human breast tumor cell expressing high level of androgen receptor). A MMTV minimal promoter containing ARE was first cloned in front of a firefly luciferase reporter gene. Then the cascade was cloned into transfection vector pUV120puro. Electroporation method was used for transfecting MDA-MB-453 cell. Puromycin resistant stable cell line was selected.
Cell Culture Media and Reagents:
Culture medium: DMEM (high glucose, Gibco cat #: 11960-044), 10% FBS, and 1% L-glutamine
Plating medium: DMEM (phenol red free), 10% charcoal treated HyClone serum, 1% L-glutamine
Assay medium: DMEM (phenol red free), 1% charcoal treated HyClone serum, 1% L-glutamine, and 1% penicillin/streptomycin
3× luciferase buffer: 2% beta-mercaptoethanol, 0.6% ATP, 0.0135% luciferine in cell lysis buffer
• 1. Cells are maintained in culture medium, splitting cells when they reach 80–90% confluence • 2. To test compounds, 10,000 cells/well are plated to opaque 96 cell culture plate in 100 ul/well plating medium, culture for overnight at 37° C. in cell culture incubator • 3. Carefully remove plating medium, then add 80 ul/well of pre-warmed assay medium, add 10 ul/well testing compound (final concentration at 10 uM or 1 uM), incubate at 37° C. for 30 minutes • 4. Add 10 ul/well freshly prepared DHT (final concentration at 100 pM) to each well, incubate at 37° C. for 17 hr (overnight) • 5. Add 50 ul/well 3× luciferase buffer, incubate at room temperature for 5 minutes, then count on Luminometer.
The fold induction over background by 100 pM DHT in the absence of testing compounds is standardized as 100% and experimental result is expressed as percentage of inhibition by testing compounds.

SMILES	IC50
O=c1cc(C(F)(F)F)c2cc(Cc3ccc(S(=O)(=O)NCCN4CCCC4)cc3)ccc2[nH]1 [Example 56, 4-(2-Oxo-4-trifluoromethyl-1,2-dihydroquinolin-6-ylmethyl)-N-(2-pyrrolidin-1-yl-ethyl)-benzenesulfonamide]	3.64 µM
CN(CCC#N)S(=O)(=O)c1ccc(Cc2ccc3[nH]c(=O)cc(C(F)(F)F)c3c2)cc1 [Example 10, N-(2-Cyanoethyl)-N-methyl-4-(2-oxo-4-trifluoromethyl-1,2-dihydroquinolin-6-ylmethyl)benzenesulfonamide]	> 10 µM
O=c1cc(C(F)(F)F)c2cc(Cc3ccc(S(=O)(=O)Nc4cc(-c5ccccc5)n[nH]4)cc3)ccc2[nH]1 [Example 37, 4-(2-Oxo-4-trifluoromethyl-1,2-dihydroquinolin-6-ylmethyl)-N-(5-phenyl-2H-pyrazol-3-yl)-benzenesulfonamide]	> 10 µM
COc1cc(NS(=O)(=O)c2ccc(Cc3ccc4[nH]c(=O)cc(C(F)(F)F)c4c3)cc2)cc(OC)c1 [Example 34, N-(3,5-Dimethoxyphenyl)-4-(2-oxo-4-trifluoromethyl-1,2-dihydroquinolin-6-ylmethyl)-benzenesulfonamide]	> 10 µM
CN(CCc1ccccn1)S(=O)(=O)c1ccc(Cc2ccc3[nH]c(=O)cc(C(F)(F)F)c3c2)cc1 [Example 13, N-Methyl-4-(2-oxo-4-trifluoromethyl-1,2-dihydroquinolin-6-ylmethyl)-N-(2-pyridin-2-ylethyl)benzenesulfonamide]	> 10 µM
O=C1CCCN1CCCNS(=O)(=O)c1ccc(Cc2ccc3[nH]c(=O)cc(C(F)(F)F)c3c2)cc1 [Example 68, N-[3-(2-Oxopyrrolidin-1-yl)propyl]-4-(2-oxo-4-trifluoromethyl-1,2-dihydroquinolin-6-ylmethyl)-benzenesulfonamide]	7.62 µM
CC(C)Oc1cccc(NS(=O)(=O)c2ccc(Cc3ccc4oc(=O)cc(C(F)(F)F)c4c3)cc2)c1 [Example 142, N-(3-Isopropoxyphenyl)-4-(2-oxo-4-trifluoromethyl-2H-chromen-6-ylmethyl)-benzenesulfonamide]	~10 µM
O=c1cc(C(F)(F)F)c2cc(Cc3ccc(S(=O)(=O)Nc4cc5ccccc5cn4)cc3)ccc2[nH]1 [Example 27, N-Isoquinolin-3-yl-4-(2-oxo-4-trifluoromethyl-1,2-dihydroquinolin-6-ylmethyl)-benzenesulfonamide]	> 10 µM
CCCCN(CC)S(=O)(=O)c1ccc(Cc2ccc3[nH]c(=O)cc(C(F)(F)F)c3c2)cc1 [Example 6]	> 10 µM
O=c1cc(C(F)(F)F)c2cc(Cc3ccc(S(=O)(=O)NCCN4CCOCC4)cc3)ccc2[nH]1 [Example 62, N-(2-Morpholin-4-ylethyl)-4-(2-oxo-4-trifluoromethyl-1,2-dihydroquinolin-6-ylmethyl)-benzenesulfonamide]	6.66 µM
O=c1cc(C(F)(F)F)c2cc(Cc3ccc(S(=O)(=O)NCc4ccccc4Br)cc3)ccc2o1 [Example 203, N-(2-Bromobenzyl)-4-(2-oxo-4-trifluoromethyl-2H-chromen-6-ylmethyl)benzenesulfonamide]	2.19 µM
COc1cccc(NS(=O)(=O)c2ccc(Cc3ccc4oc(=O)cc(C(F)(F)F)c4c3)cc2)c1 [Example 156, N-(3-Methoxyphenyl)-4-(2-oxo-4-trifluoromethyl-2H-chromen-6-ylmethyl)benzene-sulfonamide]	1.72 µM

The remaining lines, values ahead:

IC50	SMILES
~10 µM	O=c1cc(C(F)(F)F)c2cc(Cc3ccc(S(=O)(=O)NCc4ccc(Cl)cc4Cl)cc3)ccc2[nH]1 [Example 85, N-(2,4-Dichlorobenzyl)-4-(2-oxo-4-trifluoromethyl-1,2-dihydroquinolin-6-ylmethyl)-benzenesulfonamide]
> 10 µM	CCN(Cc1ccncc1)S(=O)(=O)c1ccc(Cc2ccc3[nH]c(=O)cc(C(F)(F)F)c3c2)cc1 [Example 5, N-Ethyl-4-(2-oxo-4-trifluoromethyl-1,2-dihydroquinolin-6-ylmethyl)-N-pyridin-4-ylmethylbenzenesulfonamide]
> 10 µM	CN1CCC(N(C)S(=O)(=O)c2ccc(Cc3ccc4oc(=O)cc(C(F)(F)F)c4c3)cc2)CC1 [Example 96, N-Methyl-N-(1-methylpipendin-4-yl)-4-(2-oxo-4-trifluoromethyl-2H-chromen-6-ylmethyl)-benzenesulfonamide]
2.91 µM	CCCN(CCO)S(=O)(=O)c1ccc(Cc2ccc3oc(=O)cc(C(F)(F)F)c3c2)cc1 [Example 102, N-(2-Hydroxyethyl)-4-(2-oxo-4-trifluoromethyl-2H-chromen-6-ylmethyl)-N-propylbenzenesulfonamide]
6.91 µM	Cc1ccc(F)c(CNS(=O)(=O)c2ccc(Cc3ccc4oc(=O)cc(C(F)(F)F)c4c3)cc2)c1Cl [Example 200, N-(2-Chloro-6-fluoro-3-methylbenzyl)-4-(2-oxo-4-trifluoromethyl-2H-chromen-6-ylmethyl)benzenesulfonamide]
4.42 µM	O=c1cc(C(F)(F)F)c2cc(Cc3ccc(S(=O)(=O)NCc4c(F)ccc(F)c4Cl)cc3)ccc2o1 [Example 202, N-(2-Chloro-3,6-difluorobenzyl)-4-(2-oxo-4-trifluoromethyl-2H-chromen-6-ylmethyl)benzenesulfonamide]
> 10 µM	O=c1cc(C(F)(F)F)c2cc(Cc3ccc(S(=O)(=O)Nc4ccccc4N4CCCCC4)cc3)ccc2[nH]1 [Example 41, 4-(2-Oxo-4-trifluoromethyl-1,2-dihydroquinolin-6-ylmethyl)-N-(2-piperidin-1-ylphenyl)-benzenesulfonamide]
> 10 µM	O=c1cc(C(F)(F)F)c2cc(Cc3ccc(S(=O)(=O)Nc4ccc5ncccc5c4)cc3)ccc2[nH]1 [Example 19, 4-(2-Oxo-4-trifluoromethyl-1,2-dihydroquinolin-6-ylmethyl)-N-quinolin-6-ylbenzenesulfonamide]
> 10 µM	O=c1cc(C(F)(F)F)c2cc(Cc3ccc(S(=O)(=O)NCCc4ccccc4)cc3)ccc2[nH]1 [Example 57, 4-(2-Oxo-4-trifluoromethyl-1,2-dihydroquinolin-6-ylmethyl)-N-phenethylbenzenesulfonamide]
4.82 µM	O=c1cc(C(F)(F)F)c2cc(Cc3ccc(S(=O)(=O)Nc4ccccc4N4CCCCC4)cc3)ccc2o1 [Example 146, 4-(2-Oxo-4-trifluoromethyl-2H-chromen-6-ylmethyl)-N-(2-piperidin-1-ylphenyl)-benzenesulfonamide]
1.75 µM	O=c1cc(C(F)(F)F)c2cc(Cc3ccc(S(=O)(=O)Nc4ccc(CCO)cc4)cc3)ccc2o1 [Example 151, N-[4-(2-Hydroxyethyl)phenyl]-4-(2-oxo-4-trifluoromethyl-2H-chromen-6-ylmethyl)-benzenesulfonamide]
6.7 µM	CN1CCN(CCCNS(=O)(=O)c2ccc(Cc3ccc4[nH]c(=O)cc(C(F)(F)F)c4c3)cc2)CC1 [Example 75, N-[3-(4-Methylpiperazin-1-yl)propyl]-4-(2-oxo-4-trifluoromethyl-1,2-dihydroquinolin-6-ylmethyl)-benzenesulfonamide]
> 10 µM	CCc1cccc(NS(=O)(=O)c2ccc(Cc3ccc4[nH]c(=O)cc(C(F)(F)F)c4c3)cc2)c1 [Example 17, N-(3-Ethylphenyl)-4-(2-oxo-4-trifluoromethyl-1,2-dihydroquinolin-6-ylmethyl)benzenesulfonamide]
1.32 µM	CCc1ccc(NS(=O)(=O)c2ccc(Cc3ccc4oc(=O)cc(C(F)(F)F)c4c3)cc2)cc1 [Example 120, N-(4-Ethylphenyl)-4-(2-oxo-4-trifluoromethyl-2H-chromen-6-ylmethyl)-benzenesulfonamide]
